Data from patent publication US12152046B2, “Oleic acid derivatives, pharmaceutical composition or food composition comprising said oleic acid derivatives, and their uses” (UNIVERSITÉ DE BOURGOGNE, priority 2018, dated 2024).
“Also recorded” adds a separate entry of the source. Values belong to the molecule of their own block, whether it stands above or below them.

Legend:
CD36 = biological target: T1, CD36 (Mus musculus, UniProt Q08857); assay: Ca2+ signaling in mouse taste bud cells in presence or absence of the CD36 inhibitor SSO; assay type: cell-based; conditions: for action of the CD36 inhibitor SSO on the increase in [Ca2+]i induced by the compound: 20 μM SSO, mouse taste bud cells, Fura-2/AM; for CD36 agonist character: concluded from suppression by SSO
T1 construct: freshly isolated and primary cultured mice type II taste bud cells (expressing GPR120 and CD36) are used; endogenous in cells; host or cells: primary mouse taste bud cells from fungiform papillae
Method: (§1) The mouse taste bud cells were seeded in 24-well plates (with glass bottom), containing poly-D-lysine for better adhesion to the surface. After 24 h, taste cells were incubated for 45 minutes with a fluorescent probe, Fura-2/AM (1 μM) in calcium buffer (110 mM NaCl, 5.4 mM, KCl, 25 mM, NaHCO3, 0.8 mM, MgCl2, 0.4 mM, KH2PO4, 20 mM, Hepes-Na, 0.33 mM, NaHPO4, 1.2 mM, CaCl2), pH 7.4). Then, the cells are washed with phosphate buffer saline (PBS) and taken up in calcium buffer.
(§2) Especially, the increases in [Ca^2+]i were measured as follows: the mice taste bud cells were cultured on Willico-Dish wells with a glass bottom and loaded with a fluorescent probe, Fura-2/AM. The changes in intracellular Ca^2+ (F340/F380) were monitored under the Nikon microscope (TiU) by using S-fluor 40× oil immersion objective. The planes were taken at Z intervals of 0.3 μm, and NIS-Elements software was used to deconvolve the images. The microscope was equipped with EM-CCD (Lucas) camera for real time recording of 16-bit digital images. The dual excitation fluorescence imaging system was used for studies of individual cells. The changes in intracellular Ca^2+ were expressed as ΔRatio, which was calculated as the difference between the peak F340/F380 ratio. The data were summarized from the large number of individual cells (20-40 cells in a single run, with 3-9 identical experiments done in at least three cell preparations). The results were analyzed with the NIS-elements software, the variation in [Ca^2+]i is expressed as A ratio (F340/F380) which was calculated with the difference of spectra at two wavelengths, i.e., 340 nm and 380 nm.
CD36: in order to assess if the oleic acid derivatives according to the invention exert their actions via CD36, the sulfo-N-succinimidyl oleate (SSO) was used. SSO is a CD36 inhibitor/blocker/antagonist.
Experiments were performed in the presence or absence of SSO with respect to calcium signaling to verify whether our analogs act well via this lipid receptor. Especially, for this assay with compounds 3a, 2a and oleic acid (control) were tested.

obese C57BL/6J mice = assay: Diet-induced obesity, body weight on high-fat diet; assay type: in vivo, mouse; conditions: for body weight in obese mice: HFD 28 weeks, analogue 75 μM in feeder bottles from 10th week, versus HFD only
Method: C57BL/6J male mice, aged between 6 to 10 weeks (16-20 g), were obtained from Janvier Labs (France). They were housed individually in a controlled environment with a 12 h light/dark cycle with food (SAFE, France) and water ad libitum. The palm oil (Huilerie Vigean, France) was the main fat component in high-fat diets. The high-fat diet was prepared weekly and stored at 4° C. until further use. The study was conducted as per Declaration of Helsinki and European ethical guidelines for the care and use of animals for experimentation. All the experimental protocols (protocol number: 16158) were approved by the Regional Ethical Committee of the University of Burgundy (Dijon, France).
The mice were grouped at random (n=10/group) and fed with either of the following diets: standard diet (STD) or high-fat diet (HFD). The body weight, food, and water intake were measured, weekly.
(§3) After 10 weeks of feeding the diets, obese animals were divided into two groups: one groups continued to be fed on the same HFD; however, another group was fed on the same diet and received either NKS-3 or NKS-5) until 28th of weeks of experimentation. At the end, the animals were sacrificed, under a fasting condition, and used for different analysis in blood and different tissues.
In order to elucidate the beneficial effects and especially during obesity, experiments were conducted on obese C57BL/6J mice. […] In order to test the curative/interventional effects on obesity, the animals were divided into two groups: one group that consumed only the high-fat diet (HFD) and the other consuming the same diet and also receiving 3a or 2a in ad libitum baby bottles/feeders. From the 10th week of the diet, we introduced lipid analogues into the bottles at 75 μM that corresponded to their preference in the double choice test. […] In addition, the decrease in obesity was maintained until the 28th week of feeding a HFD (FIGS. 6A and 6B). The study was stopped after the 28th week of the diet because the animals reached the age of 34 weeks and beyond that age, the aging factor may interfere with the growth.

mouse taste bud cells = assay: Ca2+ signaling (Fura-2/AM, F340/F380) in mouse taste bud cells; assay type: cell-based; conditions: for fat taste receptor(s) through which the compound acts: Ca2+ signaling with SSO or AH7614; for increase in intracellular free calcium concentration [Ca2+]i (F340/F380): mouse taste bud cells loaded with Fura-2/AM
Method: The technique to isolate taste bud cells from mouse fungiform papillae has been described in the publication of El-Yassimi A, Hichami A, Besnard P, Khan N A. “Linoleic acid” induces calcium signaling, Src kinase phosphorylation, and neurotransmitter release in mouse CD36-positive gustatory cells”—J. Biol. Chem. 2008 May 9, 283(19), 12949-59.
Briefly, lingual epithelium was separated by enzymatic dissociation which contained the following: elastase and dispase mixture, 2 mg/ml each, in Tyrode's buffer (120 mM NaCl; 5 mM KCl; 10 mM HEPES ((4-(2-hydroxyethyl)-1-piperazineethanesulfonic acid); 1 mM CaCl2); 1 mM MgCl2; 10 mM glucose; 10 mM Na pyruvate, pH 7.4). The taste bud cells were isolated by incubating lingual epithelium in RPMI 1640 medium containing 2 mM EDTA, 1.2 mg/ml elastase, 0.6 mg/ml collagenase (type I), and 0.6 mg/ml trypsin inhibitor at 37° C. for 10 minutes, followed by centrifugation (600 g, 10 minutes). The cell populations, after separation, were suspended in fresh RPMI 1640 medium containing 10% fetal calf serum, 200 U/ml penicillin, and 0.2 mg/ml streptomycin, seeded onto a Poly-D-Lysine-coated dishes, and cultured for 24 hours. At the end of this period, the cells were used for the experiments or stained with trypan blue to assess their viability.
as §1
The changes in intracellular Ca^2+ (F340/F380) were monitored under a Nikon microscope (TiU) by using an S Fluor 40× oil immersion objective.
as §2

C-reactive protein (CRP) = assay: CRP concentration in sera of obese mice; assay type: in vivo, mouse; conditions: obese mice on HFD, versus HFD only
Method: as §3
The CRP concentration was determined in sera by an automatic analyzer (Gilford Model 2000 system, a Beckman System T.R).

mice = assay: Two-bottle preference test; assay type: in vivo, mouse; conditions: for gustatory preference versus control solution (xanthan gum) / concentration preferred (optimal preference) in two-bottle preference test: 12 hours; for gustatory preference versus control solution (xanthan gum): 10 to 100 μM; for concentration preferred (optimal preference) in two-bottle preference test: versus xanthan gum control
Method: Eight weeks old, male mice (C57BI/6 black) were purchased from the “Janvier Elevage” (Le Mans) and used for these experiments.
The mice are placed individually in cages in a controlled environment (humidity and constant temperature) and have free access to a standard diet. 6 hours before the tests, the mice are deprived of water.
During the behavioral experiments, the mice were offered two bottles simultaneously for 12 hours (night period).
The mice are subjected to a choice between the “control” solution and the experimental solution (FIG. 4 and FIG. 5). • control solutions contain 0.3% xanthan gum, w/v, (Sigma Life Science, USA) in water to reproduce lipid texture and minimize bias due to differences in appearance between the two bottles; • the experimental solution contains, either the “test compound” according to the invention at a concentration varying from 10 to 100 μM (compound 3a, FIG. 4 or compound 2a, FIG. 5) or only xanthan gum at […] (control test). To avoid the preference for one side, the position of each bottle is changed during each test.
To estimate the consumption of control and experimental solutions, the bottles are weighed before and after each experiment. The mice are allowed to take rest for 48 hours between each experiment.

GPR120 = biological target: T2, GPR120 (Mus musculus, UniProt Q7TMA4); assay: Ca2+ signaling in mouse taste bud cells in presence or absence of the GPR120 antagonist AH7614; assay type: cell-based; conditions: AH7614 20 μM, compound at 50 μM, cells pre-incubated 15 minutes
T2 construct: freshly isolated and primary cultured mice type II taste bud cells (expressing GPR120 and CD36) are used; endogenous in cells; host or cells: primary mouse taste bud cells from fungiform papillae
T2 sequence (Q7TMA4 1-361): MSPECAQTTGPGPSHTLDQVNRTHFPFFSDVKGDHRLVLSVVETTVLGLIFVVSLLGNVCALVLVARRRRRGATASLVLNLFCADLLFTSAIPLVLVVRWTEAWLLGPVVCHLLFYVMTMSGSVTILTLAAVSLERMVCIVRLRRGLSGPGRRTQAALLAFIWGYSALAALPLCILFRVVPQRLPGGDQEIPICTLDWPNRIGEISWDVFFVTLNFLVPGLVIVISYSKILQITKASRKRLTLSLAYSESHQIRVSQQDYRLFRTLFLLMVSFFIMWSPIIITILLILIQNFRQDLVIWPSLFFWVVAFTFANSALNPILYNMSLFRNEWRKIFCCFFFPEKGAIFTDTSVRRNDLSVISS
Method: as §1
as §2, with “The microscope was equipped with EM-CCD (Lucas) camera for real time recording of 16-bit digital images.” left out, “The data were summarized from the large number of individual cells (20-40 cells in a single run, with 3-9 identical experiments done in at least three cell preparations).” left out, “nm. […]” for “nm.”

T1 sequence (Q08857 whole entry): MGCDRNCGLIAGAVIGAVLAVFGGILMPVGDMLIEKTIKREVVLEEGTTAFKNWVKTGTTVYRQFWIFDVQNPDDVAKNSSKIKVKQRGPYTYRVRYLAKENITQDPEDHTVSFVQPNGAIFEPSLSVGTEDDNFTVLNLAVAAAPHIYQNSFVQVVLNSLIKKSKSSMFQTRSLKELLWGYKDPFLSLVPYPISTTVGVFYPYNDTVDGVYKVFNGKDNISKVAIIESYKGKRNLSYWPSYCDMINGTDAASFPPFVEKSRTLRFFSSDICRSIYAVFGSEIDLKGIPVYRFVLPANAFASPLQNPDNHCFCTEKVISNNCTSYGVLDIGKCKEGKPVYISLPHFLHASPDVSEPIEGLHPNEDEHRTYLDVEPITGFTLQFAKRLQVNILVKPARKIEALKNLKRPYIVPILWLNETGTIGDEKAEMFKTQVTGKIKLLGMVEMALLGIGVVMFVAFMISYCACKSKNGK

CD36 agonist character (CD36): partial agonist
SMILES: CCCCCCCC/C=C\CCCCCCCC(=O)OCC1(C)COC1 [Compound 2a, (Z)-(3-methyloxetan-3-yl)methyl octadec-9-enoate]
action of the CD36 inhibitor SSO on the increase in [Ca2+]i induced by the compound (CD36): partially blocked; also recorded: curtailed, but not completely suppressed
body weight in obese mice (obese C57BL/6J mice): significant decrease in body weight
anti-obesity effect, comparison of the two analogues (obese C57BL/6J mice; HFD, 75 μM in feeder bottles): more powerful than 3a
fat taste receptor(s) through which the compound acts (mouse taste bud cells): bounds to CD36; also recorded: acts on both receptors CD36 and GPR120
increase in intracellular free calcium concentration [Ca2+]i (F340/F380) (mouse taste bud cells): rapid and significant rise in calcium signaling; also recorded: huge increase
concentration of circulating CRP (C-reactive protein (CRP)): significantly decreased
gustatory preference versus control solution (xanthan gum) (mice): spontaneous preference
concentration preferred (optimal preference) in two-bottle preference test (mice): 75 µM
effect of the GPR120 inhibitor AH7614 on the increase in [Ca2+]i induced by the compound (GPR120): significantly curtailed, but not suppressed

SMILES: CCCCCCCC/C=C\CCCCCCCC(=O)O [oleic acid]
action of the CD36 inhibitor SSO on the increase in [Ca2+]i induced by the compound (CD36; listed as OA): completely blocked; also recorded: partially blocked
increase in intracellular free calcium concentration [Ca2+]i (F340/F380) (mouse taste bud cells): rapid and significant rise in calcium signaling
concentration preferred in two-bottle preference test (mice): 7.7 mM

SMILES: CCCCCCCC/C=C\CCCCCCCCP(=O)(OCC)OCC [Compound 3a, diethyl (Z)-octadec-9-en-1-yl phosphonate]
action of the CD36 inhibitor SSO on the increase in [Ca2+]i induced by the compound (CD36): completely blocked; also recorded: completely suppressed
CD36 agonist character (CD36): complete CD36 agonist
body weight in obese mice (obese C57BL/6J mice): significant decrease in body weight
fat taste receptor(s) through which the compound acts (mouse taste bud cells): acts both to CD36 and GPR120
increase in intracellular free calcium concentration [Ca2+]i (F340/F380) (mouse taste bud cells): rapid and significant rise in calcium signaling; also recorded: huge increase
concentration of circulating CRP (C-reactive protein (CRP)): significantly decreased
gustatory preference versus control solution (xanthan gum) (mice): spontaneous preference
concentration preferred (optimal preference) in two-bottle preference test (mice): 75 µM
